From patent US10016424B2, “Method and pharmaceutical composition for use in the treatment of epilepsy” (INSERM (Institut National de la Sante et de la Recherche …, priority 2013, dated 2018)
Read-outs that look alike come from different tables or passages of the source.

How the values were obtained:
[1] = tested on: dentate gyrus of organotypic slices; test: Spontaneous interictal-like activity, extracellular field recordings in pilocarpine-treated organotypic hippocampal slice cultures; type: cell-based, mouse
Method: (§1) Hippocampal/entorhinal cortex slices (350 μm) were prepared from pre-genotyped GluK2−/− and WT mice (P9-10, FVB/N background) using a McIlwain tissue chopper. Slices were placed on mesh inserts (Millipore # PICMORG50) inside culture dishes containing 1 ml of the following medium: MEM 50%, HS 25%, HBSS 25%, HEPES 15 mM glucose 6.5 mg/ml and insulin 0.1 mg/ml. Culture medium was changed every 2-3 days and slices maintained in an incubator at 37° C./5% CO2. Pilocarpine (0.5 μM) was added to the medium at 5 D.I.V and removed at 7 D.I.V; slices were utilized for experiments from 9 D.I.V.
Cultured or acute slices were individually transferred to a recording chamber maintained at 30-32° C. and continuously perfused (2 ml/min) with oxygenated normal or adapted ACSF containing 5 μM gabazine. Local field potentials were made in the granule cell layer of the DG with glass electrodes (2-3 MΩ; filled with normal ACSF) using a DAM-80 amplifier (low filter, 1 Hz; […], 3 KHz; World Precision Instruments, Sarasota, Fla.). For evoked synaptic transmission, electrical stimulation was performed with a bipolar NiCh electrode (#762000, AM systems). Whole-cell voltage-clamp recordings of DGCs were made using tight-seal electrodes (5-8 MΩ) filled with an internal solution containing the following (in mM): 135 gluconic acid, 135 CsOH, 10 MgCl2, 0.1 CaCl2, 1 EGTA, 10 HEPES, 2 MgATP, 0.4 NaGTP, and 0.5% biocytin, pH 7.25. We used a Multiclamp 700B amplifier (Molecular Devices): data were filtered at 2 kHz, digitized (20 kHz) with a Digidata 1440A (Molecular Devices) to a PC, and acquired using Clampex 10.1 software (PClamp, Molecular Devices). Signals were analyzed off-line using Clampfit 9.2 (PClamp) and MiniAnalysis 6.0.1 (Synaptosoft, Decatur, Ga.). In organotypic slices, spontaneous EPSCs were recorded at the reversal potential for GABAergic currents (Vh=−70 mV). To characterize the nature and kinetic properties of fast and slow events, miniature EPSCs (mEPSCs) evoked in Sr2+ conditions (external Ca2+ was substituted with 1.2 mM Sr2+) were recorded in DGCs from GluK2−/− and WT slices. Electrical stimulation was made in the molecular layer in the continued presence of 5 μM gabazine and 40 μM D-APV; asynchronous mEPSCs were measured during the 300 ms period after the stimulus artifact. […] In cultured slices, visual representation of time-frequency analysis of local field potentials was performed using Autosignal software (Seasolve 1.7). In brief, field activity was highpass-filtered (>100 Hz) and time-frequency analysis performed using a continuous wavelet (Morlet) that reported integrated power (time-integral-squared amplitude, TISA) across time. Filtered traces were also analyzed by Fourier analysis (Hamming) using Clampfit 9.2. In acute hippocampal slices, intensity of antidromically-evoked bursts was quantified using coastline index (Epsztein et al., 2005).
The role of KARs in spontaneous epileptiform activity was then tested using extracellular field recordings in cultured slices. Recordings were performed in 5 mM K+-containing ACSF and in the presence of 5 μM gabazine in order to enhance neuronal excitability and to reliably record stereotyped spontaneous interictal-like activity (Berdichevsky et al., 2012).

[2] = tested on: KAR-mediated EPSCs at mossy fiber synapses; test: Evoked KAR-mediated EPSCs at recurrent mossy fiber synapses in acute hippocampal slices from pilocarpine-treated mice; type: cell-based, mouse; settings: 1 μM; DGCs from WT pilocarpine-treated mice; data not shown
Method: All experiments were approved by the Institut National de la Santé et de la Recherche Médicale animal care and use committee of May 29, 2001 (2001-464) and the European community council directive of Nov. 24, 1986 (86/609/EEC). Mice (FVB/N background) had access to food and water ad libitum and were housed under a 12 h light/dark cycle at 22-24° C. Male GluK2−/− and WT mice (P60-80) were given scopolamine (1 mg/kg) subcutaneously (s.c.) 15 minutes prior to s.c. administration of pilocarpine (200-600 mg/kg). A ramp protocol was used whereby animals were given an initial dose of 200 mg/kg followed by half-doses every 30 minutes until seizures appeared. […] Diazepam (10 mg/kg) was administered 45 minutes after onset of SE. […]
Cultured or acute slices were individually transferred to a recording chamber maintained at 30-32° C. and continuously perfused (2 ml/min) with oxygenated normal or adapted ACSF containing 5 μM gabazine. […] Signals were analyzed off-line using Clampfit 9.2 (PClamp) and MiniAnalysis 6.0.1 (Synaptosoft, Decatur, Ga.). In organotypic slices, spontaneous EPSCs were recorded at the reversal potential for GABAergic currents (Vh=−70 mV). To characterize the nature and kinetic properties of fast and slow events, miniature EPSCs (mEPSCs) evoked in Sr2+ conditions (external Ca2+ was substituted with 1.2 mM Sr2+) were recorded in DGCs from GluK2−/− and WT slices. […]

KARs = target: T1, KARs (Mus musculus, UniProt P39087+Q61626); type: cell-based
T1 construct: from tissue; host or cells: dentate granule cells in pilocarpine-treated organotypic hippocampal/entorhinal slice cultures from WT mice (FVB/N)
T1 sequence (P39087 32-908): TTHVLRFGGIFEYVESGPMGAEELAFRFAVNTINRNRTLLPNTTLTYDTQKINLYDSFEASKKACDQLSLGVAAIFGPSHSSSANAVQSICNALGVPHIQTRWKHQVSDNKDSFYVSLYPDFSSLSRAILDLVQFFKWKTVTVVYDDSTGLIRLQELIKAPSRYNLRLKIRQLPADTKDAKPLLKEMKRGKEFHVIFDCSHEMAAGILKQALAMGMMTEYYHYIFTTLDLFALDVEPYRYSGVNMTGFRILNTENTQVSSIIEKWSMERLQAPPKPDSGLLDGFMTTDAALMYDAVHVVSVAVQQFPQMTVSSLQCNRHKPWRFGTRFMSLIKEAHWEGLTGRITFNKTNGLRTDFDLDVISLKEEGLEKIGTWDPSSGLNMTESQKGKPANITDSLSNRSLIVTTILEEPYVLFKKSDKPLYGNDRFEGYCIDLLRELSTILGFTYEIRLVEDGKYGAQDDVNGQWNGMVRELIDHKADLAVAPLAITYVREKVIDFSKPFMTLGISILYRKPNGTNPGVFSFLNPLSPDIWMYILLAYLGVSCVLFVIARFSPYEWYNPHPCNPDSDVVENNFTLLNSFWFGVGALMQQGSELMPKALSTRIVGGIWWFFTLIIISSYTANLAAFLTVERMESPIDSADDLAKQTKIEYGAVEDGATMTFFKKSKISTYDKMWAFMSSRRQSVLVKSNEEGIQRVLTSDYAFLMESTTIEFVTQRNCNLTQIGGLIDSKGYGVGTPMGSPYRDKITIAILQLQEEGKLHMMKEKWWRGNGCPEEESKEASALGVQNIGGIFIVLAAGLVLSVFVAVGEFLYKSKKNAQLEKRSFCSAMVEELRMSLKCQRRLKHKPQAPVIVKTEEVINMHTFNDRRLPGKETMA
T1 sequence (Q61626 15-979): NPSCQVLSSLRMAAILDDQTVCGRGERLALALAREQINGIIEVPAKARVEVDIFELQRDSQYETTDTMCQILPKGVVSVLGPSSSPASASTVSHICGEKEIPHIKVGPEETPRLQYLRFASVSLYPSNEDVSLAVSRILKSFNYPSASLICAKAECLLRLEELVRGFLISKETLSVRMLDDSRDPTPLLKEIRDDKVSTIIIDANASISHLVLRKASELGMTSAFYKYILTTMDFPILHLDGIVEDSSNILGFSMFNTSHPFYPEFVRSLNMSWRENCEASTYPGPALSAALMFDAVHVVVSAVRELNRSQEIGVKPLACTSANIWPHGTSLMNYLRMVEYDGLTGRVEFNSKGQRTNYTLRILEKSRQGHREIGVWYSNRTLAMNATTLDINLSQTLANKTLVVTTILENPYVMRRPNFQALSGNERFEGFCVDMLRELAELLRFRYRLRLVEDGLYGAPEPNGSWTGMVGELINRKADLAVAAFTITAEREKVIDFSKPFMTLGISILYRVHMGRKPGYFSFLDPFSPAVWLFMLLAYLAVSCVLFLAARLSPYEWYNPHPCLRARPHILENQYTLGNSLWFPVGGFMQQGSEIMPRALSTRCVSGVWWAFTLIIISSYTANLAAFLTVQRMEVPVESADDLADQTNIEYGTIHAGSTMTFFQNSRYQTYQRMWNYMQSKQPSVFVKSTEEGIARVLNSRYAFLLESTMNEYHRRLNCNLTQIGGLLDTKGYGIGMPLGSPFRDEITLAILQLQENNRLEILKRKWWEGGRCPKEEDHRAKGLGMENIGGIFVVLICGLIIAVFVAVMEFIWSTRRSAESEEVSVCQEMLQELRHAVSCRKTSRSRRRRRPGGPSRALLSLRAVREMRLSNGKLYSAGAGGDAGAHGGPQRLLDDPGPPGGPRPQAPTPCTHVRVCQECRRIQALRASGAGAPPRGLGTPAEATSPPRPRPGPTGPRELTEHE
Method: as §1
Cultured or acute slices were individually transferred to a recording chamber maintained at 30-32° C. and continuously perfused (2 ml/min) with oxygenated normal or adapted ACSF containing 5 μM gabazine. Local field potentials were made in the granule cell layer of the DG with glass electrodes (2-3 MΩ; filled with normal ACSF) using a DAM-80 amplifier (low filter, 1 Hz; […], 3 KHz; World Precision Instruments, Sarasota, Fla.). For evoked synaptic transmission, electrical stimulation was performed with a bipolar NiCh electrode (#762000, AM systems). […] Signals were analyzed off-line using Clampfit 9.2 (PClamp) and MiniAnalysis 6.0.1 (Synaptosoft, Decatur, Ga.). In organotypic slices, spontaneous EPSCs were recorded at the reversal potential for GABAergic currents (Vh=−70 mV). To characterize the nature and kinetic properties of fast and slow events, miniature EPSCs (mEPSCs) evoked in Sr2+ conditions (external Ca2+ was substituted with 1.2 mM Sr2+) were recorded in DGCs from GluK2−/− and WT slices. Electrical stimulation was made in the molecular layer in the continued presence of 5 μM gabazine and 40 μM D-APV; asynchronous mEPSCs were measured during the 300 ms period after the stimulus artifact. […] Filtered traces were also analyzed by Fourier analysis (Hamming) using Clampfit 9.2. In acute hippocampal slices, intensity of antidromically-evoked bursts was quantified using coastline index (Epsztein et al., 2005).

AMPARs = test: Remaining fast (AMPAR-mediated) EPSCs in dentate granule cells of GluK2-/- organotypic slices; type: cell-based, mouse; settings: 30 μM, data not shown
Method: as §1
Cultured or acute slices were individually transferred to a recording chamber maintained at 30-32° C. and continuously perfused (2 ml/min) with oxygenated normal or adapted ACSF containing 5 μM gabazine. […] Signals were analyzed off-line using Clampfit 9.2 (PClamp) and MiniAnalysis 6.0.1 (Synaptosoft, Decatur, Ga.). In organotypic slices, spontaneous EPSCs were recorded at the reversal potential for GABAergic currents (Vh=−70 mV). To characterize the nature and kinetic properties of fast and slow events, miniature EPSCs (mEPSCs) evoked in Sr2+ conditions (external Ca2+ was substituted with 1.2 mM Sr2+) were recorded in DGCs from GluK2−/− and WT slices. […] Filtered traces were also analyzed by Fourier analysis (Hamming) using Clampfit 9.2. […]

[3] = slices from WT mice, 10 μM SYM2081 or 5 μM UBP310

SMILES: NS(=O)(=O)c1cc2c(cc1Cl)NC(C1CC3C=CC1C3)NS2(=O)=O (stereo not drawn) [CTZ, cyclothiazide]
- recovery of reduced interictal-like activity in GluK2-/- slices ([1]; GluK2-/- slices, bath application): could be recovered

SMILES: N[C@H](C(=O)O)C1[C@@H](C(=O)O)[C@@H]1C(=O)O (stereo partly drawn) [DCGIV]
- inhibition of KAR-mediated EPSCs [2]: 84%

SMILES: CNC(=O)N1N=C(c2ccc(N)cc2)c2cc3c(cc2CC1C)OCO3 (stereo not drawn) [GYKI53655]
- effect on KAR-mediated mEPSCs (KARs; WT cultured slices, SYM2081 10 μM, UBP310 5 μM, Sr2+ conditions, 5 μM gabazine, 40 μM D-APV): insensitive
- block of remaining fast EPSCs (AMPARs): fully blocked

SMILES: C[C@H](C[C@H](N)C(=O)O)C(=O)O [SYM2081, (2S,4R)-4-Methylglutamate]
- effect on KAR-mediated mEPSCs (KARs): abolished
- alteration of the PD phase (power of paroxysmal discharge) [1, 3]: No significant alteration
- reduction of power of the bursts in the late MB phase [1, 3]: 68%
- reduction of frequency of interictal-like activity ([1]; slices from WT mice, 10 μM SYM2081 or 5 μM UBP310, 5 mM K+ ACSF, 5 μM gabazine): 47%
- frequency of interictal-like activity ([1]; slices from WT mice, 10 μM SYM2081 or 5 μM UBP310, without antagonist 3.2±0.4, mean±SEM): 1.69±0.3 events/min
